In ChEMBL document CHEMBL6109064, “Functional and structural polypharmacology of indazole-based privileged ligands to tackle the undruggability of membrane transporters” (Eur J Med Chem, 2025):

Tests used:
Format in all cases: cell-based
[1] = molecular target: T1, ATP-dependent translocase ABCB1 (Homo sapiens, UniProt P08183); assay: Inhibition of ABCB1 in human A2780 ADR cells assessed as increase in calcein-AM fluorescence intensity using calcein-AM as tracer preincubated for 30 mins followed by calcein-AM addition and measured within 30 mins at 30s intervals by fluorescence based analysis
[2] = molecular target: T1, ATP-dependent translocase ABCB1; assay: Inhibition of ABCB1 in human A2780 ADR cells assessed as increase in daunorubicin fluorescence intensity using daunorubicin as tracer preincubated for 30 mins followed by daunorubicin addition and measured for 180 mins by flow cytometry
[3] = molecular target: Multidrug resistance-associated protein 1 (Homo sapiens, UniProt P33527); assay: Inhibition of ABCC1 in human NCI-H69AR cells assessed as increase in daunorubicin fluorescence intensity using daunorubicin as tracer preincubated for 30 mins followed by daunorubicin addition and measured for 180 mins by flow cytometry
[4] = molecular target: T2, Solute carrier organic anion transporter family member 1A2 (Homo sapiens, UniProt P46721); assay: Inhibition of OATP1A2 (unknown origin) transfected in human A-431 cells assessed as inhibition of SR101 uptake preincubated for 5 mins followed by SR101 addition and measured after 10 mins by fluorescence based analysis
T2 sequence (P46721 whole entry): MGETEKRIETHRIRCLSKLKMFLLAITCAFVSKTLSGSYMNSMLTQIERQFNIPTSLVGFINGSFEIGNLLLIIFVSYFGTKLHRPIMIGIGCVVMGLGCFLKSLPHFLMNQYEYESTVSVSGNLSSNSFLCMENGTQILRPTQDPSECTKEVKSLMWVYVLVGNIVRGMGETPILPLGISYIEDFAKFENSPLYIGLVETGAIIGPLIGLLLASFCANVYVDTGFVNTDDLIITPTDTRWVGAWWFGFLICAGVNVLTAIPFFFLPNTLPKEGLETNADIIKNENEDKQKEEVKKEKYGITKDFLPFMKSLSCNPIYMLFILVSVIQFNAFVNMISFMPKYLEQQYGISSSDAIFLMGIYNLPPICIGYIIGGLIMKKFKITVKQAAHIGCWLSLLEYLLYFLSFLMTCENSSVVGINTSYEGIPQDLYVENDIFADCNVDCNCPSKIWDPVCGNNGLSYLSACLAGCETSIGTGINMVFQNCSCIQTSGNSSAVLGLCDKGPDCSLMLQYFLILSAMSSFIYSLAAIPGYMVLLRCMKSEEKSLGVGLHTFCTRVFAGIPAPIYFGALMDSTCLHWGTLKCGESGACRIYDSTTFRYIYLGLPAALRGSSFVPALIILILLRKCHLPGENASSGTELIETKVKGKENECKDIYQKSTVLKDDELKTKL

[5] = molecular target: T3, Solute carrier organic anion transporter family member 2B1 (Homo sapiens, UniProt O94956); assay: Inhibition of OATP2B1 (unknown origin) transfected in human A-431 cells assessed as inhibition of pyranine uptake preincubated for 5 mins followed by pyranine addition and measured after 15 mins by fluorescence based analysis
T3 sequence (O94956 whole entry): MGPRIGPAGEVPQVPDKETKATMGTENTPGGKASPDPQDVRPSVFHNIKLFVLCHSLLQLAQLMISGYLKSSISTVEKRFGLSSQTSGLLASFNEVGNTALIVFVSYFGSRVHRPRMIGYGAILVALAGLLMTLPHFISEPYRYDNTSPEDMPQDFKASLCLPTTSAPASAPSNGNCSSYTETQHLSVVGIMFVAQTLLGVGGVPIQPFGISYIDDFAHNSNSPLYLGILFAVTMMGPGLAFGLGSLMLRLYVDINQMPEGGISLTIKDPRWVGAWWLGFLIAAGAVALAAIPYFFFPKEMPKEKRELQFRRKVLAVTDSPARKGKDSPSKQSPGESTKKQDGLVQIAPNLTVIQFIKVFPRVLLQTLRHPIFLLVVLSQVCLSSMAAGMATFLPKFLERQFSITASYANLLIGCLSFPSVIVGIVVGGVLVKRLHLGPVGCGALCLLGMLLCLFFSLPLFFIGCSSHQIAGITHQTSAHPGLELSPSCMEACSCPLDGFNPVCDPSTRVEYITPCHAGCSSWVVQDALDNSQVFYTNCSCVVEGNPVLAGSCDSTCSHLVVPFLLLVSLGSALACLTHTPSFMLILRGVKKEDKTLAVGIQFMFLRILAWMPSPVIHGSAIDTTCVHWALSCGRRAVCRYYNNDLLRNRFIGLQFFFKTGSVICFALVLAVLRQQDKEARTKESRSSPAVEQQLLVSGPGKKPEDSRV

[6] = molecular target: T4, Solute carrier family 22 member 2 (Homo sapiens, UniProt O15244); assay: Inhibition of OCT2 (unknown origin) expressed in HEK293 cells assessed as inhibition of ASP+ uptake incubated for 5 mins by fluorescence based analysis
T4 sequence (O15244 whole entry): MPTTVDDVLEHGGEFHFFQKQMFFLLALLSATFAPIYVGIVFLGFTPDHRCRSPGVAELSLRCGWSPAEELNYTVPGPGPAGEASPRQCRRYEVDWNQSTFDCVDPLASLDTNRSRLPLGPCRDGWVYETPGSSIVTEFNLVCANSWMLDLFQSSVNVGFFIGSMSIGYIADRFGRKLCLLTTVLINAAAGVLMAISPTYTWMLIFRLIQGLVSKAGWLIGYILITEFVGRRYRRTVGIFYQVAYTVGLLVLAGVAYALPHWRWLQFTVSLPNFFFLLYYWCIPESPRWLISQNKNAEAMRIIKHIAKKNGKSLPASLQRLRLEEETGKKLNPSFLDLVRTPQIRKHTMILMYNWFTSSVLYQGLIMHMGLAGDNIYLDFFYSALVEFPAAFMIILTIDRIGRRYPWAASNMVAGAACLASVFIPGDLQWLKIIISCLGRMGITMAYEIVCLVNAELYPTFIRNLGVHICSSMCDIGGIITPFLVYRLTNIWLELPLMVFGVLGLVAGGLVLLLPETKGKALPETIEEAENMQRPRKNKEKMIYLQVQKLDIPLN

Multidrug resistance-associated protein 1, sequence (P33527 whole entry): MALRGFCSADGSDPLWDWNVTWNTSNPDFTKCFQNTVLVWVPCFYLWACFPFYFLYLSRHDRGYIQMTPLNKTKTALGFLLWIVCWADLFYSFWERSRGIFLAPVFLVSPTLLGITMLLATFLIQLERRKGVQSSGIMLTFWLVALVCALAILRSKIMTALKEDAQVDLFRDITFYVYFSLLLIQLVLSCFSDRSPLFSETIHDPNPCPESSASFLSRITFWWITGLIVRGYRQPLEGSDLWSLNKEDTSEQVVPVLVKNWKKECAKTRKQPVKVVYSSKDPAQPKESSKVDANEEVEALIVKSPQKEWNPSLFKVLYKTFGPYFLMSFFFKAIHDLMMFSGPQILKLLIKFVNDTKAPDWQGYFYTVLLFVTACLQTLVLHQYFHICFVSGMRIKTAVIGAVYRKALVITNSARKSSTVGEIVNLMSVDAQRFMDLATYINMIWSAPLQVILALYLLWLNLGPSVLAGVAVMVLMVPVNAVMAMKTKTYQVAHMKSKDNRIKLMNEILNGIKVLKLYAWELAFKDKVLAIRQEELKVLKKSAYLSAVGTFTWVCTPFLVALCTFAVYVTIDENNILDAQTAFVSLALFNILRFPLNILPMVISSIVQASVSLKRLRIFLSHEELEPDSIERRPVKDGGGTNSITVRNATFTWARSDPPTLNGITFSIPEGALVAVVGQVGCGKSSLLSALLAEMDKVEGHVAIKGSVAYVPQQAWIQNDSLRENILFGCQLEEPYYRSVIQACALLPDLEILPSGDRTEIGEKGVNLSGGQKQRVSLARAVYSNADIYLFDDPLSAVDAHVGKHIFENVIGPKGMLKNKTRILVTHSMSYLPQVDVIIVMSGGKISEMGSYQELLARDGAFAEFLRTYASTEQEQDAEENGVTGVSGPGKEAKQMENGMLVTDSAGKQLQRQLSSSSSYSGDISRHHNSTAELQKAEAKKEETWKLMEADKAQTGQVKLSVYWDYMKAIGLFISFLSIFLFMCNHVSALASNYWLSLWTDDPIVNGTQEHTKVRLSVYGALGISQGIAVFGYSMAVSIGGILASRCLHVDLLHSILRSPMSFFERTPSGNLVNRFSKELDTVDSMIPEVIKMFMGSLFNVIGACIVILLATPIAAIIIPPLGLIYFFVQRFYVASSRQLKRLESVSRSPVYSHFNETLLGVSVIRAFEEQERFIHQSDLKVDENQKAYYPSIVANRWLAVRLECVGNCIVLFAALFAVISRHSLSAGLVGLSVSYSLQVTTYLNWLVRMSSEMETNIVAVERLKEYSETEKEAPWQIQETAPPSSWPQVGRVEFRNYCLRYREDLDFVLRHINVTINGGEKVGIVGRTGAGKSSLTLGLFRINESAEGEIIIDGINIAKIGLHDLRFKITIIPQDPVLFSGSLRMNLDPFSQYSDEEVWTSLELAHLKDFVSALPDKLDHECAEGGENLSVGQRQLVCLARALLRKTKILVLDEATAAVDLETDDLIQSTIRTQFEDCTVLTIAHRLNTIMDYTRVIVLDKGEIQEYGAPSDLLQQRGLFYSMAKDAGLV
T1 sequence (P08183 whole entry): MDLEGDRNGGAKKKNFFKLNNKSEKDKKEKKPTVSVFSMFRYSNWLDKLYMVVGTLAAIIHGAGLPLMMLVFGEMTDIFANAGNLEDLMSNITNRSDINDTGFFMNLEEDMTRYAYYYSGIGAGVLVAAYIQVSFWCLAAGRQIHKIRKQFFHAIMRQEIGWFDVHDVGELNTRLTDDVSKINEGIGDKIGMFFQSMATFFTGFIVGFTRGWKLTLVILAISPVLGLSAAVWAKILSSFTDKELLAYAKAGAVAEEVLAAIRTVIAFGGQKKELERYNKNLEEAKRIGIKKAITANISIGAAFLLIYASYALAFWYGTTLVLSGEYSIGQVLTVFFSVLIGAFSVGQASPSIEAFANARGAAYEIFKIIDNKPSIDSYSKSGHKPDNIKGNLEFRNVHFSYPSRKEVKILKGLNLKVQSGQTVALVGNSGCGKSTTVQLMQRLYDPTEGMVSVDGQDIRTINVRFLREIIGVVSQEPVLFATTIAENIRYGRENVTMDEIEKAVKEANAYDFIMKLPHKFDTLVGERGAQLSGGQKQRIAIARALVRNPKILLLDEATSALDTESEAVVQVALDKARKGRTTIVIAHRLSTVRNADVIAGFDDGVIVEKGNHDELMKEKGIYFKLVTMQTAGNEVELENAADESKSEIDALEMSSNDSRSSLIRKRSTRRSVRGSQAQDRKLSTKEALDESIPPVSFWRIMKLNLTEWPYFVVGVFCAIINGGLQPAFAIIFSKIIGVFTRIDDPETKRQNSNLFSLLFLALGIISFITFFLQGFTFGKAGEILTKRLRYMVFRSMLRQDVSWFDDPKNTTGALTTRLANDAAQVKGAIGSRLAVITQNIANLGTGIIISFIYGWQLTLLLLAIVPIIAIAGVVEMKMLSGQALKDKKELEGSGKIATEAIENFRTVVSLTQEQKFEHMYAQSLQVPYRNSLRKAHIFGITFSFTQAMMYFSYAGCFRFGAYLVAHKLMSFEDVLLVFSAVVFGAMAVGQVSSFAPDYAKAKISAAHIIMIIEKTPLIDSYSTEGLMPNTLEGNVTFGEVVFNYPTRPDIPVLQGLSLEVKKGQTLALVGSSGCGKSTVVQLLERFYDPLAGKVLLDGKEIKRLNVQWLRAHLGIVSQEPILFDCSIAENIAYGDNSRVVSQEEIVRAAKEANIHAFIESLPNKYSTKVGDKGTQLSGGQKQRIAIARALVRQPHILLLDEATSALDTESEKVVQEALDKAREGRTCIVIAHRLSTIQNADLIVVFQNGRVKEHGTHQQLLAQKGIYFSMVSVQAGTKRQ

Row | Compound | IC50 [1] | IC50 [2] | IC50 [3] | IC50 [4] | IC50 [5] | IC50 [6]
1 | COc1cccc(NC(=O)c2nn(CC(=O)Nc3ccccc3OC)c3ccccc23)c1 | 1560 nM | 2180 nM | 2190 nM | 237 nM | 124 nM | 11800 nM
2 | O=C(Cn1nc(C(=O)Nc2ccccn2)c2ccccc21)Nc1cc(Cl)ccc1Cl | 626 nM | 1740 nM | 492 nM | 1320 nM | 167 nM | 50300 nM
3 | O=C(Cn1nc(C(=O)Nc2cccnc2)c2ccccc21)Nc1ccc(Cl)cc1 | 6120 nM | 8000 nM | 5150 nM | 422 nM | 155 nM | 60100 nM
4 | COc1cccc(NC(=O)Cn2nc(C(=O)Nc3cccc(OC)c3)c3ccccc32)c1 | 1100 nM | 1430 nM | 1480 nM | 420 nM | 583 nM | 20800 nM
